Literature values as cited in US11839662B2, “Compositions for neuromodulation of mosquito feeding behavior and uses thereof” (University of Central Florida Research Foundation, Inc., priority 2017, dated 2023).

| SMILES | effect on oviposition and larval hatch rate (Anopheles gambiae) | repellant and larvicidal effect (mosquitoes) |
| --- | --- | --- |
| Clc1cccc(Cl)c1N=C1NCCN1 [Clonidine] | decrease oviposition and larval hatch rate | – |
| CC1(C)CCC[C@]2(C)[C@@H](C=O)C(C=O)=CC[C@@H]12 [Polygodial] | – | repellant ability in mosquitoes and act as a larvacide |
